Data: ChEMBL document CHEMBL2040827, “Quinolizidinone carboxylic acids as CNS penetrant, selective m1 allosteric muscarinic receptor modulators” (ACS Med Chem Lett, 2010)
One block for each compound: values may come before it. Active and inactive are the calls of the source. The rule behind the calls is not given here.

Legend:
[1] = molecular target: T1, Muscarinic acetylcholine receptor M1 (Homo sapiens) (UniProt P11229); experiment: Positive allosteric modulation of human muscarinic M1 receptor expressed in CHO-NFAT cells assessed as potentiation of acetylcholine-induced calcium flux after 1 hr by FLIPR assay; assay type: functional, cell-based
T1 sequence (whole entry): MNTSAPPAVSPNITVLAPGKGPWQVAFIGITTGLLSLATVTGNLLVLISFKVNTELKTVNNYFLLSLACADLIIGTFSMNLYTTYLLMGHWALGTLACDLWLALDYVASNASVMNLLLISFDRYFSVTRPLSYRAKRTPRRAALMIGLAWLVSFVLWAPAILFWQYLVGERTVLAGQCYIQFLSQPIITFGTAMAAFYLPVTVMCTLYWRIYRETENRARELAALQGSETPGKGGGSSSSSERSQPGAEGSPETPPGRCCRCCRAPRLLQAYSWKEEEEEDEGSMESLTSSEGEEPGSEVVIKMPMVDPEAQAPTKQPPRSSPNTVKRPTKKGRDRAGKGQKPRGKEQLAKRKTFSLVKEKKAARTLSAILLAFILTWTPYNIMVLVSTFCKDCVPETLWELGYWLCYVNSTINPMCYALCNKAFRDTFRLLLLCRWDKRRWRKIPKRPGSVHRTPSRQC

[2] = molecular target: T1, Muscarinic acetylcholine receptor M1 (Homo sapiens); experiment: Positive allosteric modulation of human muscarinic M1 receptor expressed in CHO-NFAT cells assessed as potentiation of acetylcholine-induced calcium flux after 1 hr by FLIPR assay relative to control; assay type: functional, cell-based; design: concentration or dose not given beside the values
Plasma [3] = experiment: (§1) Protein binding in rat plasma; assay type: ADME, cell-free
Plasma [4] = experiment: (§2) Protein binding in human plasma; assay type: ADME, cell-free
[5] = as §1; assay type: ADME, cell-free; settings: read-out: PPB (converted)
[6] = as §2; assay type: ADME, cell-free; settings: read-out: PPB (converted)
Cerebrospinal fluid = experiment: Drug uptake in Sprague-Dawley rat cerebrospinal fluid at 10 mg/kg, po; assay type: ADME, organism-based; design: dose 10 mg/kg, route oral; settings: in vivo, read-out: Drug uptake
Plasma [7] = experiment: Plasma concentration in Sprague-Dawley rat at 10 mg/kg, po; assay type: ADME, organism-based; design: dose 10 mg/kg, route oral; settings: in vivo
Brain = experiment: Drug uptake in Sprague-Dawley rat brain at 10 mg/kg, po; assay type: ADME, organism-based; design: dose 10 mg/kg, route oral; settings: in vivo, read-out: Drug uptake
[8] = molecular target: Voltage-gated inwardly rectifying potassium channel KCNH2 (Homo sapiens, UniProt Q12809); experiment: Inhibition of human ERG
P-glycoprotein = experiment: Passive permeability of the compound assessed as P-glycoprotein-mediated drug transport; assay type: ADME; settings: not told
[9] = molecular target: MDR1 (P-glycoprotein, ABCB1) (Homo sapiens, UniProt P08183); experiment: Efflux ratio of the compound assessed as ratio of human MDR1-mediated permeability from basolateral to apical over apical to basolateral side of drug transport; assay type: ADME; settings: not told
[10] = Ratio of drug level in brain to plasma in Sprague-Dawley rat at 10 mg/kg, po; assay type: ADME, organism-based; design: dose 10 mg/kg, route oral; settings: read-out: BPR
[11] = Ratio of drug uptake in Sprague-Dawley rat cerebrospinal fluid at 10 mg/kg, po to protein binding in rat plasma; assay type: ADME, organism-based, CSF/Plasma; design: dose 10 mg/kg, route oral; settings: in vivo
[12] = molecular target: MDR1a (multidrug resistance protein 1a) (Rattus norvegicus, UniProt Q6PSM0); experiment: Efflux ratio of the compound assessed as ratio of rat MDR1a-mediated permeability from basolateral to apical over apical to basolateral side of drug transport; assay type: ADME; settings: not told
Mus musculus [13] = experiment: Inhibition of scopolamine-induced memory deficit in ip dosed contextual fear conditioning memory model of mouse by measuring freezing behavior at 33 uM of plasma concentration after 24 hrs […] relative to control; assay type: functional, organism-based
[14] = molecular target: T2, Muscarinic acetylcholine receptor M2 (Homo sapiens) (UniProt P08172); experiment: Agonist activity at human muscarinic M2 receptor expressed in CHO-NFAT cells assessed as potentiation of acetylcholine-induced calcium flux at up to 100 uM after 1 hr by FLIPR assay; assay type: functional, cell-based
T2 sequence (whole entry): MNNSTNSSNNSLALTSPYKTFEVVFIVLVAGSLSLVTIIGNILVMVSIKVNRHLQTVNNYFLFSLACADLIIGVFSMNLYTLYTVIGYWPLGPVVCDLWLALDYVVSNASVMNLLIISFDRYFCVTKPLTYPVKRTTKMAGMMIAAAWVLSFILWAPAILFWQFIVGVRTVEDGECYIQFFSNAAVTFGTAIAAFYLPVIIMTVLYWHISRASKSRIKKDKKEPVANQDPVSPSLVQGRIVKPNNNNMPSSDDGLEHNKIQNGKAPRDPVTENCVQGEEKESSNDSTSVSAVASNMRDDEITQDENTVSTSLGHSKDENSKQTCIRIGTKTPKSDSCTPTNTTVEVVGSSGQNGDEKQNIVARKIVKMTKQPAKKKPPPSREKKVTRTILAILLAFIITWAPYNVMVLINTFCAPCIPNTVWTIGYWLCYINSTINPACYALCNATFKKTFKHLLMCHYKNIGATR

[15] = molecular target: Muscarinic acetylcholine receptor M3 (Homo sapiens) (UniProt P20309); experiment: Agonist activity at human muscarinic M3 receptor expressed in CHO-NFAT cells assessed as potentiation of acetylcholine-induced calcium flux at up to 100 uM after 1 hr by FLIPR assay; assay type: functional, cell-based
Mus musculus [16] = experiment: Inhibition of scopolamine-induced memory deficit in contextual fear conditioning memory model of mouse by measuring freezing behavior at 30 mg/kg, ip at 7.4 uM of plasma concentration after 24 hrs […] relative to control; assay type: functional, organism-based; design: dose 30 mg/kg
[17] = Half life in Sprague-Dawley rat at 10 mg/kg, po and 2 mg/kg, iv; assay type: ADME, organism-based; settings: in vivo
Mus musculus [18] = experiment: Inhibition of scopolamine-induced memory deficit in ip dosed contextual fear conditioning memory model of mouse by measuring freezing behavior after 24 hrs […] relative to control; assay type: functional, organism-based
[19] = Clearance in Sprague-Dawley rat at 10 mg/kg, po and 2 mg/kg, iv; assay type: ADME, organism-based; settings: in vivo
[20] = Half life in dog at 10 mg/kg, po and 2 mg/kg, iv; assay type: ADME, organism-based, Canis lupus familiaris; settings: in vivo
[21] = molecular target: T3, Muscarinic acetylcholine receptor M4 (Homo sapiens) (UniProt P08173); experiment: Antagonist activity at human muscarinic M4 receptor expressed in CHO-NFAT cells assessed as inhibition of acetylcholine-induced calcium flux at up to 100 uM after 1 hr by FLIPR assay; assay type: functional, cell-based
T3 sequence (whole entry): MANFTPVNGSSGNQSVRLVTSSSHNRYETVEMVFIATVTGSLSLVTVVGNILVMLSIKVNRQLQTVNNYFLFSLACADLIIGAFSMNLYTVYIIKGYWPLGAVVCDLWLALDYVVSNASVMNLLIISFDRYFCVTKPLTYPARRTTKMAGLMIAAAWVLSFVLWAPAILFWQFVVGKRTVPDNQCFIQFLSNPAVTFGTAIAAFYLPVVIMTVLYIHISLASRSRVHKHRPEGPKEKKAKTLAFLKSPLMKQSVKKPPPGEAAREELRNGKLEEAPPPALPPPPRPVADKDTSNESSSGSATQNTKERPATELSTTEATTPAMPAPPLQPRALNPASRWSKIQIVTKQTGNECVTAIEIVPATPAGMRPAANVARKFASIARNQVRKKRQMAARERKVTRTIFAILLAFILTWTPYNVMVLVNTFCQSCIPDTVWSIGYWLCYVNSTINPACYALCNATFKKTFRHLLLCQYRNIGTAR

[22] = Clearance in dog at 10 mg/kg, po and 2 mg/kg, iv; assay type: ADME, organism-based, Canis lupus familiaris; settings: in vivo
[23] = molecular target: T3, Muscarinic acetylcholine receptor M4 (Homo sapiens); experiment: Agonist activity at human muscarinic M4 receptor expressed in CHO-NFAT cells assessed as potentiation of acetylcholine-induced calcium flux at up to 100 uM after 1 hr by FLIPR assay; assay type: functional, cell-based
[24] = Oral bioavailability in dog at 10 mg/kg; assay type: ADME, organism-based, Canis lupus familiaris; settings: in vivo
[25] = molecular target: Muscarinic acetylcholine receptor M3 (Homo sapiens) (UniProt P20309); experiment: Antagonist activity at human muscarinic M3 receptor expressed in CHO-NFAT cells assessed as inhibition of acetylcholine-induced calcium flux at up to 100 uM after 1 hr by FLIPR assay; assay type: functional, cell-based
[26] = molecular target: T1, Muscarinic acetylcholine receptor M1 (Homo sapiens); experiment: Agonist activity at human muscarinic M1 receptor expressed in CHO-NFAT cells assessed as effect on calcium flux up to 10 uM after 1 hr by FLIPR assay; assay type: functional, cell-based
[27] = Oral bioavailability in Sprague-Dawley rat at 10 mg/kg; assay type: ADME, organism-based; settings: in vivo
[28] = molecular target: T2, Muscarinic acetylcholine receptor M2 (Homo sapiens); experiment: Antagonist activity at human muscarinic M2 receptor expressed in CHO-NFAT cells assessed as inhibition of acetylcholine-induced calcium flux at up to 100 uM after 1 hr by FLIPR assay; assay type: functional, cell-based
[29] = Fraction unbound in rat plasma; assay type: ADME, cell-free
[30] = Fraction unbound in human plasma; assay type: ADME, cell-free

MDR1 (P-glycoprotein, ABCB1), sequence (P08183 whole entry): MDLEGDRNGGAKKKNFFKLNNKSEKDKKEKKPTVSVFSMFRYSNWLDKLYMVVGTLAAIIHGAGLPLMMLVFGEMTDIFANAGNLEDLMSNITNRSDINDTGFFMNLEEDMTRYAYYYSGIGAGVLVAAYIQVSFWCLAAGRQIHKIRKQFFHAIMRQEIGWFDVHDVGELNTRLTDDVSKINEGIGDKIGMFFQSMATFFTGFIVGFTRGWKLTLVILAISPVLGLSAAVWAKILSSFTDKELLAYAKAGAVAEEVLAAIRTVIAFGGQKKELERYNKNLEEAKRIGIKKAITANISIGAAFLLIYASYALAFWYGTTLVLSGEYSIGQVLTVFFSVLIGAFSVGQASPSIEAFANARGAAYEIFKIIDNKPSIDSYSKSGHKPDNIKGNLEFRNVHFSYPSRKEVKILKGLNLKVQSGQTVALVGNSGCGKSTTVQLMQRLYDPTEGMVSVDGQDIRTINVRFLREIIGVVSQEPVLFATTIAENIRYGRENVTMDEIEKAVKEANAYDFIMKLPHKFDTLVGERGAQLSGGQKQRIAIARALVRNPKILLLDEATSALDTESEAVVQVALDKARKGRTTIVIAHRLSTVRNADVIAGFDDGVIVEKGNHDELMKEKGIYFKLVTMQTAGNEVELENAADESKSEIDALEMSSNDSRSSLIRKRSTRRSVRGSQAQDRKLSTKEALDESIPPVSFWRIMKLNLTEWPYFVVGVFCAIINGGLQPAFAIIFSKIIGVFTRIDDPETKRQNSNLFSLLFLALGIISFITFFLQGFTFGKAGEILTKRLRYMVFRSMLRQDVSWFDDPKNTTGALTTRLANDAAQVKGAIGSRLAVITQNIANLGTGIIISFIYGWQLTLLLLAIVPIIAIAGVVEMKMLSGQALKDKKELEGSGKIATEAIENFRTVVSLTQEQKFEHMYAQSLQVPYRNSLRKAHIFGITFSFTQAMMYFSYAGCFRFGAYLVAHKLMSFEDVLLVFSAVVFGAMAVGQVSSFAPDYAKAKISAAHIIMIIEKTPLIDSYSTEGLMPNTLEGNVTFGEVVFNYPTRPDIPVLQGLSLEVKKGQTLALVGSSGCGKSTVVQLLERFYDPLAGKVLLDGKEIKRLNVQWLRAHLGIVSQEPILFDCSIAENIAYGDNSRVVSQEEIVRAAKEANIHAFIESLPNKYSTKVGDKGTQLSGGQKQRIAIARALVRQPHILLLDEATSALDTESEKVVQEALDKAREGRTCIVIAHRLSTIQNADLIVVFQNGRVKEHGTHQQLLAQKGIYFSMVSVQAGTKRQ
Voltage-gated inwardly rectifying potassium channel KCNH2, sequence (Q12809 whole entry): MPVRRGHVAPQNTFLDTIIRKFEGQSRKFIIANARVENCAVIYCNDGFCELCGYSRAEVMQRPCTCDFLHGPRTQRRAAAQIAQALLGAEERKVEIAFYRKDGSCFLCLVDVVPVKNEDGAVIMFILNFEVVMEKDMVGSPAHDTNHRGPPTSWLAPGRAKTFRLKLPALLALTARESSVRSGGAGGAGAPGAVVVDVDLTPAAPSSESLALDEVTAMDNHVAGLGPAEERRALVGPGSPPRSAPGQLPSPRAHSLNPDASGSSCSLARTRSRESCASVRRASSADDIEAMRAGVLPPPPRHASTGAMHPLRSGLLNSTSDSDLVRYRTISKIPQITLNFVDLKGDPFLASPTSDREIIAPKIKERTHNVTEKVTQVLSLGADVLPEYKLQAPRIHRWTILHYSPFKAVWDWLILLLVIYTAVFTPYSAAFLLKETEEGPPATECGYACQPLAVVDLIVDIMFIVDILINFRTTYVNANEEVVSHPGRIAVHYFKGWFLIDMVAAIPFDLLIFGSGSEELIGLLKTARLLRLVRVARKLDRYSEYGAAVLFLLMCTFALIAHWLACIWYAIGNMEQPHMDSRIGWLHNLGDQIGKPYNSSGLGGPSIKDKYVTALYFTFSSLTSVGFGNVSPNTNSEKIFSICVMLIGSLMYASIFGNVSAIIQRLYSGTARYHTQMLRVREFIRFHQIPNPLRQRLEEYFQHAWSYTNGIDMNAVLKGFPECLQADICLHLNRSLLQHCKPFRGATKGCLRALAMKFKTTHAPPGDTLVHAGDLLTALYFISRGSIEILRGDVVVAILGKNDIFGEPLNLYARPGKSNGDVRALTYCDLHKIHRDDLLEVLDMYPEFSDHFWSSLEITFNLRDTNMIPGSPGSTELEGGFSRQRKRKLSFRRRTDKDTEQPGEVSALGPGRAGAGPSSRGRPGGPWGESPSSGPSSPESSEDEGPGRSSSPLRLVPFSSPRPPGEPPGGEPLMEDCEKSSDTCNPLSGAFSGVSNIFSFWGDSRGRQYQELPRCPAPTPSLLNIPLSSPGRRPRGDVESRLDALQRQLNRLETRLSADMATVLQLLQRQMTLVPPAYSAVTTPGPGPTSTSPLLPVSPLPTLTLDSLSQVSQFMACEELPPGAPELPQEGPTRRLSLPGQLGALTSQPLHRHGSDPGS
MDR1a (multidrug resistance protein 1a), sequence (Q6PSM0 whole entry): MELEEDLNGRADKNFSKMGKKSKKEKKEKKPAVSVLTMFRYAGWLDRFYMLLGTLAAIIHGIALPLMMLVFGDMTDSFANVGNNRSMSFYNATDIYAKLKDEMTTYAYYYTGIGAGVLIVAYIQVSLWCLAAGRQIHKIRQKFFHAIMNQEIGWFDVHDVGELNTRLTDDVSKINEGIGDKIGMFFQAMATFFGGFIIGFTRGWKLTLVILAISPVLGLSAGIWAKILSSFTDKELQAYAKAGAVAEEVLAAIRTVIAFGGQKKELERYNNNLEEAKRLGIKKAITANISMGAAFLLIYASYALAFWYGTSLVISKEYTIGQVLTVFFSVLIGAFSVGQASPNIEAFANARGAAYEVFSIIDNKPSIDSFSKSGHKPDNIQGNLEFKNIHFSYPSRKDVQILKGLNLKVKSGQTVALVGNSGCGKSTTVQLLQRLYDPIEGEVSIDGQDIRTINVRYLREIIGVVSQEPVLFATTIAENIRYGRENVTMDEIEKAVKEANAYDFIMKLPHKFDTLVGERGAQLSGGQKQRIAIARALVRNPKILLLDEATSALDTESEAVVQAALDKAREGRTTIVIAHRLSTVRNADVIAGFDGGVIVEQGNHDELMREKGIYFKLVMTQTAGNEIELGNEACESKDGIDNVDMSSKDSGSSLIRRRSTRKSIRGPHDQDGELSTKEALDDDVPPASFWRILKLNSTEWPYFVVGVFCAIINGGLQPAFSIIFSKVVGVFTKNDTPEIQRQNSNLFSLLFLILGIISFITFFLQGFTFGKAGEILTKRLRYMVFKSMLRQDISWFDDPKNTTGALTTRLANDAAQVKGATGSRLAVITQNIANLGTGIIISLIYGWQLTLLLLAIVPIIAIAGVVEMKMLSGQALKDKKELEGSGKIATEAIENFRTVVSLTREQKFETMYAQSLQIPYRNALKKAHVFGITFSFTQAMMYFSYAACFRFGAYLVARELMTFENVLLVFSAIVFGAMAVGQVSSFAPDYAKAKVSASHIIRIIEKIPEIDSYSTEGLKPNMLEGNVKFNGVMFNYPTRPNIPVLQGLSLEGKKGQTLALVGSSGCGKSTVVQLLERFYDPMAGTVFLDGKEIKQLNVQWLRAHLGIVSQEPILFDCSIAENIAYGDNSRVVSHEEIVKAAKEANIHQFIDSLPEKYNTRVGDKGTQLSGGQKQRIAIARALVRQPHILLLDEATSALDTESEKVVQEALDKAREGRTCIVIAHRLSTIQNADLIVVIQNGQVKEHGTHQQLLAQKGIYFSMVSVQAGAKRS
Muscarinic acetylcholine receptor M3 (Homo sapiens), sequence (P20309 whole entry, looked up): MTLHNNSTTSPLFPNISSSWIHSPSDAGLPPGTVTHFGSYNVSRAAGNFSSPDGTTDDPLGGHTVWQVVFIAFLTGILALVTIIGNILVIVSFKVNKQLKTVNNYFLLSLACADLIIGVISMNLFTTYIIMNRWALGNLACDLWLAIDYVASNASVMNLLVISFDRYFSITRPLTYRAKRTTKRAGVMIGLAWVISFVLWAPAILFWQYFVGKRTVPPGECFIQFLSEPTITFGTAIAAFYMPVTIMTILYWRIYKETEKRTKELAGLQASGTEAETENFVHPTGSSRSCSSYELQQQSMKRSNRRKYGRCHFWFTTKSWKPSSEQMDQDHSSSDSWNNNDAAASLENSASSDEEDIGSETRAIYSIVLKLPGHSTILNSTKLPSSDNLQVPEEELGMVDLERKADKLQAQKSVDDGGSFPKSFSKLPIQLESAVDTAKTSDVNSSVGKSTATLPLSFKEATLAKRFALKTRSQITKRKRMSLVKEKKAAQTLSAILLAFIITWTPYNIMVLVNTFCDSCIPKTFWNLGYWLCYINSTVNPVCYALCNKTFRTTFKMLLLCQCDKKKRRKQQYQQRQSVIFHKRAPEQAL

SMILES: O=C(O)c1cc(Cc2ccc(-c3ccccc3)cc2)c2ccccn2c1=O
Activity [1]: 0.11 µM
Activity [2]: 86%
PPB (Plasma [3]): ND(Insoluble)
PPB (Plasma [4]): ND(Insoluble)

SMILES: O=C(O)c1cc(Cc2ccccc2)c2ccccn2c1=O
Activity [1]: 0.92 µM
Activity [2]: 81%

SMILES: O=C(O)c1cc(C(=O)c2ccccc2)c2ccccn2c1=O
Activity [1]: > 100 µM

SMILES: O=C(O)c1cc(Cc2ccc(Cl)cc2)c2ccccn2c1=O
Activity [1]: 0.2 µM
Activity [2]: 93%

SMILES: COc1ccc(Cn2cc(C(=O)O)c(=O)c3ccccc32)cc1
inhibition (Mus musculus [13]): inactive

SMILES: O=C(O)c1cc(CN2CCCCC2)c2ccccn2c1=O
Activity [1]: 7.6 µM
Activity [2]: 87%

SMILES: O=C(O)c1cc(Cc2ccc(-c3ccccn3)cc2)c2ccccn2c1=O
Activity [1]: 0.061 µM
Activity [2]: 78%

SMILES: O=C(O)c1cc(C(O)c2ccccc2)c2ccccn2c1=O (stereo unspecified)
Activity [1]: > 100 µM

SMILES: O=C(O)c1cc(Cc2ccc(-c3cccnc3)cc2)c2ccccn2c1=O
Activity [1]: 0.075 µM
Activity [2]: 74%
fraction unbound [5]: 0.015
fraction unbound [6]: 0.003

Further lines, with some results ahead:

Activity [1]: 1.1 µM
Activity [2]: 89%
fraction unbound [5]: 0.62
fraction unbound [6]: 0.479
SMILES: O=C(O)c1cc(CN2CCN(c3ccccc3)C(=O)C2)c2ccccn2c1=O

concentration (Cerebrospinal fluid): 14 nM
Activity [1]: 0.27 µM
concentration (Plasma [7]): 1140 nM
concentration (Brain): 3080 nM
Activity [2]: 67%
fraction unbound [5]: 0.034
Papp (P-glycoprotein): 32 ×10⁻⁶ cm/s
efflux ratio [9]: 1.4
fraction unbound [6]: 0.049
Kp [10]: 2.7
Ratio [11]: 0.25
efflux ratio [12]: 1.3
SMILES: O=C(O)c1cc(CN2CCN(c3ccc(C(F)(F)F)cc3)CC2)c2ccccn2c1=O
IC50 [8]: 100 nM

concentration (Cerebrospinal fluid): 85 nM
Activity [1]: 0.52 µM
Activity [14]: inactive
concentration (Plasma [7]): 1500 nM
Activity [15]: inactive
concentration (Brain): 248 nM
Activity [2]: 94%
half-life [17]: 6.4 h
fraction unbound [5]: 0.062
Papp (P-glycoprotein): 22 ×10⁻⁶ cm/s
clearance [19]: 10.8 mL/min/kg
half-life [20]: 2.5 h
efflux ratio [9]: 0.7
inhibition [21]: inactive
clearance [22]: 13 mL/min/kg
Activity [23]: inactive
bioavailability [24]: 33%
inhibition [25]: inactive
fraction unbound [6]: 0.134
Kp [10]: 0.17
Activity [26]: inactive
Ratio [11]: 0.42
efflux ratio [12]: 1.9
bioavailability [27]: 23%
inhibition [28]: inactive
SMILES: N#Cc1ccc(N2CCN(Cc3cc(C(=O)O)c(=O)n4ccccc34)CC2)cc1
inhibition (Mus musculus [13]): Active
inhibition (Mus musculus [16]): Active
IC50 [8]: 7400 nM
inhibition (Mus musculus [18]): Dose-dependent effect

Activity [1]: > 100 µM
SMILES: O=C(O)c1cc(CN2CCC(c3ccccc3)C2)c2ccccn2c1=O (stereo unspecified)

Activity [1]: 0.93 µM
fraction unbound [29]: > 0.25
Activity [2]: 52%
fraction unbound [5]: 0.369
fraction unbound [30]: > 0.25
fraction unbound [6]: 0.26
SMILES: O=C(O)c1cc(CN2CCN(c3ccccc3)CC2)c2ccccn2c1=O

Activity [1]: 1.3 µM
Activity [2]: 58%
SMILES: O=C(O)c1cc(CN2CCC(c3ccccc3)CC2)c2ccccn2c1=O

concentration (Cerebrospinal fluid): 70 nM
Activity [1]: 0.13 µM
concentration (Plasma [7]): 3650 nM
concentration (Brain): 4580 nM
fraction unbound [29]: 0.04
Activity [2]: 77%
fraction unbound [5]: 0.039
Papp (P-glycoprotein): 16 ×10⁻⁶ cm/s
efflux ratio [9]: 0.1
fraction unbound [6]: 0.065
Kp [10]: 1.3
Ratio [11]: 0.32
efflux ratio [12]: 0.6
SMILES: O=C(O)c1cc(CN2CCN(c3ccc(Br)cc3)CC2)c2ccccn2c1=O
IC50 [8]: 2100 nM

concentration (Cerebrospinal fluid): 16 nM
Activity [1]: 1.5 µM
concentration (Plasma [7]): 2070 nM
concentration (Brain): 59 nM
Activity [2]: 86%
Papp (P-glycoprotein): < 5 ×10⁻⁶ cm/s
Kp [10]: 0.03
Ratio [11]: 0.02
SMILES: O=C(O)c1cc(CN2CCN(c3ccncc3)CC2)c2ccccn2c1=O
